Patent publication US20070167408A1, “NOVEL ALKYL PHOSPHOLIPID DERIVATIVES WITH REDUCED CYTOTOXICITY AND USES THEREOF” (ZENTARIS GmbH, priority 2005, published 2007)
≈ marks a conversion by molar mass, not a printed value.

Tests used:
[1] = test system: Plasmodium falciparum (strain K1); test: In vitro drug activity assay, protozoon C; type: cell-based; settings: strain K1, 3[H]-hypoxanthine method
Method: (§1) In vitro activity of selected compounds of the invention against different protozoa was assessed as follows.
(§2) Plasmodium falciparum strain K1 and strain 3D7 parasites were cultured according to Trager W and Jensen J B (Science 1976, 193: 673-675). In vitro drug susceptibility assays with the test compounds were carried out according to Korsinczky M et al. (Antimicrobial agents and chemotherapy 2000, 44(8): 2100-2108) and Fivelman Q L et al. (Antimicrobial agents and chemotherapy 2004, 48(11): 4097-4102) using a ^3[H]-hypoxanthine radioisotope method. ED50 values were calculated with Msxlfit (IDBS).
(§3) The following protozoa were assessed: • A) Trypanosoma cruzi (Tulahuan-LACZ amstigotes in PEM, Lorente S O et al., Antimicrobial agents and chemotherapy 2004, 48(8): 2937-2950; Buckner et al., Infection and Immunity 1999, 67(1): 403-409; Buckner et al., Antimicrobial Agents and Chemotherapy 1996, 40(11): 2592-2597) • B) Trypanosoma brucei rhodesiense (strain STIB900, Lorente S O et al., Antimicrobial agents and chemotherapy 2004, 48(8): 2937-2950; Habtemariam S, BMC Pharmacology 2003, 3:6) • C) Plasmodium falciparum (strain K1, Korsinczky M et al., Antimicrobial agents and chemotherapy 2000, 44(8): 2100-2108; Thaitong S and Beale G H, Trans. R. Soc. Trop. Med. Hyg. 1981, 75: 271-273; Trager W and Jensen J B, Science 1976, 193: 673-675) • D) Plasmodium faiciparum (strain 3D7, Mu et al., PLoS Biology 2005, 3(10): e335)

[2] = test system: Cryptococcus neoformans ATCC 90112; test: Anti-fungal broth microdilution (MIC), fungus H; type: cell-based; settings: yeast protocol, more than 80% inhibition, 48 h
Method: (§4) Anti-fungal activity of selected compounds of the invention was assessed by means of anti-fungal susceptibility tests as follows.
(§5) The antifungal activities of the compounds of the invention against different fungi were measured according to standard broth microdilution methods of the US National Committee for Clinical Laboratory standards (NCCLS) for yeasts (NCCLS document M27-A, 1997) and filamentous fungi (NCCLS document M38-A, 2002).
(§6) Stock solutions of compounds of the invention were freshly prepared on the days of experiments equal to 1.28 mg/10 ml media. Serial dilutions were performed to achieve the following testing concentrations: 64 μg/ml, 32 μg/ml, 16 μg/ml, 8 μg/ml, 4 μg/ml, 2 μg/ml, 1 μg/ml, 0.5 μg/ml, 0.25 μg/ml and 0.125 μg/ml.
(§7) An inoculum of 10^6 CFU/ml of the fungi strain was prepared in the appropriate medium and transferred to test tubes for incubation.
(§8) The method is used to determine the minimum inhibitory concentrations (MIC) of drugs on fungi strains. […] For the filamentous fungi protocol, MIC determination took place after 48 to 72 h of culture at 35° C. and was defined at that concentration which produced more than 50% visible growth inhibition.

[3] = test system: Aspergillus fumigatus ATCC 204305; test: Anti-fungal broth microdilution (MIC), fungus A; type: cell-based; settings: filamentous protocol, more than 50% growth inhibition, 48 to 72 h
Method: as §4, §5, §6, §7, §8

[4] = test system: Candida albicans ATCC 90028; test: Anti-fungal broth microdilution (MIC), fungus E; type: cell-based; settings: yeast protocol, more than 80% inhibition, 48 h
Method: as §4, §5, §6, §7, §8

[5] = test system: Cryptococcus neoformans H99; test: Anti-fungal broth microdilution (MIC), fungus I; type: cell-based; settings: yeast protocol, more than 80% inhibition, 48 h
Method: as §4, §5, §6, §7, §8

[6] = test system: Plasmodium faiciparum (strain 3D7); test: In vitro drug activity assay, protozoon D; type: cell-based, Plasmodium falciparum; settings: strain 3D7, 3[H]-hypoxanthine method
Method: as §1, §2, §3

[7] = test system: Trypanosoma brucei rhodesiense (strain STIB900); test: In vitro drug activity assay, protozoon B; type: cell-based; settings: bloodstream form trypomastigotes, 72 hours, Alamar Blue
Method: as §1
Trypanosoma brucei rhodesiense STIB900 bloodstream form trypomastigotes were maintained in HMI-18 medium (Hirumi H, Hirumi K, J Parasitol. 1989, 75(6):985-989) with 15% heat-inactivated fetal calf serum at 37° C., 5% CO2, humidified atmosphere. Trypomastigotes were washed and resuspended in fresh medium at a concentration of 2×10^5 mL. Test compounds were given to the trypomastigotes and plates were incubated for 72 hours at 37° C., 5% CO2, humidified atmosphere. At 72 hours the plates were assessed microscopically before Alamar Blue was added (Raz et al., Acta Trop. 1997, 68: 139-147). Plates were read after 5 to 6 hours at EX/EM 530/585 nm with a filter cutoff at 550 nm. ED50 values were calculated with Msxlfit (IDBS).
as §3

[8] = test system: Candida albicans ATCC 10231; test: Anti-fungal broth microdilution (MIC), fungus D; type: cell-based; settings: yeast protocol, more than 80% inhibition, 48 h
Method: as §4, §5, §6, §7, §8

[9] = test system: Aspergillus fumigatus 322-384; test: Anti-fungal broth microdilution (MIC), fungus B; type: cell-based; settings: filamentous protocol, more than 50% growth inhibition, 48 to 72 h
Method: as §4, §5, §6, §7, §8

Candida albicans TS3 = test: Anti-fungal broth microdilution (MIC), fungus F; type: cell-based; settings: yeast protocol, more than 80% inhibition, 48 h
Method: as §4, §5, §6, §7, §8

[10] = test system: Aspergillus fumigatus 040-200167; test: Anti-fungal broth microdilution (MIC), fungus C; type: cell-based; settings: filamentous protocol, more than 50% growth inhibition, 48 to 72 h
Method: as §4, §5, §6, §7, §8

[11] = test system: Candida parapsilosis ATCC 22019; test: Anti-fungal broth microdilution (MIC), fungus G; type: cell-based; settings: yeast protocol, more than 80% inhibition, 48 h
Method: as §4, §5, §6, §7, §8

[12] = test system: Cryptococcus gattii ATCC 32608; test: Anti-fungal broth microdilution (MIC), fungus J; type: cell-based; settings: yeast protocol, more than 80% inhibition, 48 h
Method: as §4, §5, §6, §7, §8

[13] = test system: Trypanosoma cruzi (Tulahuan-LACZ amstigotes in PEM); test: In vitro drug activity assay, protozoon A; type: cell-based; settings: amastigotes in murine peritoneal macrophages, 3 days
Method: as §1
Murine (CD1) peritoneal macrophages were harvested 24 hours after starch induction and dispensed into 96-well plates at a concentration of 4×10^5 mL. After 24 hours, the cells were infected with Trypanosoma cruzi Tulahuan LAC-Z amastigotes (grown and cultured according to Buckner et al., Infection and Immunity 1999, 67(1): 403-409). 24 hours later, the infected cells were exposed to the test compounds (compounds of the invention as well as known prior art compounds) for 3 days and 50 μL of 500 μM CPRG-1% Nonidet P-40 was added to each well. The plates were read after 2 to 5 hours at 570 nm (Buckner et al., Antimicrobial Agents and Chemotherapy 1996, 40(11): 2592-2597). ED50 values were calculated with Msxlfit (IDBS).
as §3

[14] = test system: Bacteroides fragilis DSM 2151 (ATCC 25285); test: Anti-bacterial bouillon microdilution assay (MIC), bacterium E; type: cell-based; settings: anaerob, 24 h
Method: (§9) Selected compounds of the invention were tested in a bouillon microdilution assay method according to the DIN 58940 (www.din.de) guidelines for determination of susceptibility of bacterial strains with regard to cell growth inhibition. The assay method quantifies bacterial cell growth which corresponds to the turbidity of the liquid culture medium by photometric measurement carried out at 595 nm.
(§10) The method of MIC determination was performed according to DIN 58940-5. The volumina were adapted according to the microdilution method as described in DIN 58940-7 guideline.
(§11) Dependent on water solubility, compounds of the invention were dissolved either in water or ethanol in a concentration of 10 mg/ml. Subsequently, the stock was further diluted in water to a concentration of 512 μg/ml. The following serial dilutions (factor 2) were performed in water resulting in the following […] testing concentrations: 256 μg/ml, 128 μg/ml, 64 μg/ml, 32 μg/ml, 16 μg/ml, 8 μg/ml, 4 μg/ml, 2 μg/ml, 1 μg/ml, 0.5 μg/ml, 0.25 μg/ml and 0.125 μg/ml. Diluted compounds of the invention were transferred in 100 μl volume to the microtiter plate wells.
(§12) Pre-cultures of bacteria were grown in appropriate liquid media (refer to ATCC webpage, www.atcc.org) and afterwards were inoculated in corresponding liquid medium. 100 μl of the inoculums [adjusted to an amount of app. 1×10^6 microorganisms per ml (range of 10^5-10^8 microorganisms per ml)] were added to each of the testing compound concentrations and cultivated under the appropriate conditions.
(§13) Before and after incubation, bacterial growth was determined by photometric analysis against a positive control containing growing bacteria without compound and a sterile/negative control containing only the medium.

[15] = test system: Moraxella catarrhalis DMS 11994 (ATCC 43617); test: Anti-bacterial bouillon microdilution assay (MIC), bacterium D; type: cell-based; settings: 24 h
Method: as §9, §10, §11, §12, §13

| Compound | ED50 (μg/mL), protozoon C [1] [µg/mL] | MIC, fungus H [2] [µg/mL] | MIC, fungus A [3] [µg/mL] | MIC, fungus E [4] [µg/mL] | MIC, fungus I [5] [µg/mL] | ED50 (μg/mL), protozoon D [6] [µg/mL] | ED50 (μg/mL), protozoon B [7] [µg/mL] | MIC, fungus D [8] [µg/mL] | MIC, fungus B [9] [µg/mL] | MIC, fungus F (Candida albicans TS3) [µg/mL] | MIC, fungus C [10] [µg/mL] | MIC, fungus G [11] [µg/mL] | MIC, fungus J [12] [µg/mL] | ED50 (μg/mL), protozoon A [13] [µg/mL] | further results |
| --- | --- | --- | --- | --- | --- | --- | --- | --- | --- | --- | --- | --- | --- | --- | --- |
| CCCCCCCCCCCCCCCCOP(=O)([O-])OC1CC[N+](C)(Cc2ccccc2)CC1 (stereo not drawn) [Compound 1, Phosphoric acid 1-benzyl-1-methyl-piperidin-4-yl ester hexadecyl ester] | 6.93 (≈ 13.6 µM) | 1.5 (≈ 2.94 µM) | 2 (≈ 3.92 µM) | 1 (≈ 1.96 µM) | 2 (≈ 3.92 µM) | 9.97 (≈ 19.6 µM) | 18.80 (≈ 36.9 µM) | 2 (≈ 3.92 µM) | 2 (≈ 3.92 µM) | 1.5 (≈ 2.94 µM) | 4 (≈ 7.85 µM) | 3 (≈ 5.89 µM) | 1 (≈ 1.96 µM) | 1.71 (≈ 3.35 µM) |  |
| CCCCCCCCCCCCCCCCOP(=O)([O-])OC1CC[N+](C)(CCc2ccccc2)CC1 (stereo not drawn) [Compound 4, Phosphoric acid hexadecyl ester 1-methyl-1-phenethyl-piperidin-4-yl ester] | 5.44 (≈ 10.4 µM) |  |  |  |  | 15.32 (≈ 29.3 µM) | 12.29 (≈ 23.5 µM) |  |  |  |  |  |  | 1.93 (≈ 3.69 µM) |  |
| CCCCCCCCCCCCCCCCOP(=O)([O-])OCC[N+]12CCC(CC1)CC2 [Compound 3, Phosphoric acid 2-(1-aza-bicyclo[2.2.2]oct-1-yl)-ethyl ester hexadecyl ester] | 8.03 (≈ 17.5 µM) | 1.5 (≈ 3.26 µM) | 3 (≈ 6.53 µM) | 1 (≈ 2.18 µM) | 1 (≈ 2.18 µM) | 2.25 (≈ 4.9 µM) | 25.03 (≈ 54.5 µM) | 1 (≈ 2.18 µM) | 2 (≈ 4.35 µM) | 2 (≈ 4.35 µM) | 4 (≈ 8.7 µM) | 2 (≈ 4.35 µM) | 0.75 (≈ 1.63 µM) | 0.33 (≈ 0.718 µM) | MIC, bacterium E [14]: 128 µg/mL (≈ 278 µM); MIC, bacterium D [15]: 8 µg/mL (≈ 17.4 µM) |
| CCCCCCCCCCCCCCCCCCOP(=O)([O-])OC1CC[N+](CC)(CC)CC1 [Compound 5, Phosphoric acid 1,1-diethyl-piperidin-4-yl ester octadecyl ester] | 21.26 (≈ 43.4 µM) |  |  |  |  | 16.31 (≈ 33.3 µM) | 14.20 (≈ 29 µM) |  |  |  |  |  |  | 1.43 (≈ 2.92 µM) | MIC [2]: 1.5 µg/mL (≈ 3.06 µM); MIC ([3]; Aspergillus fumigatus, ATCC204305): 6 µg/mL (≈ 12.3 µM); MIC [4]: 2 µg/mL (≈ 4.08 µM); MIC [5]: 2 µg/mL (≈ 4.08 µM); MIC [8]: 2 µg/mL (≈ 4.08 µM); MIC ([9]; Aspergillus fumigatus, 322384): 8 µg/mL (≈ 16.3 µM); MIC (Candida albicans TS3): 2 µg/mL (≈ 4.08 µM); MIC ([10]; Aspergillus fumigatus, 040200167): 24 µg/mL (≈ 49 µM); MIC [11]: 3 µg/mL (≈ 6.13 µM); MIC [12]: 0.75 µg/mL (≈ 1.53 µM) |
